Results reported in PMC3914206.

Tests used:
panel of 442 kinases [1] = target: T1, panel of 442 kinases (Homo sapiens, UniProt P21127); format: binding; conditions: Compound Concentration 10 µM
T1 construct: purchased KINOMEscan
Source text: (§1) We assessed the selectivity of members of this scaffold using the KINOMEscan methodology across a near comprehensive panel of 442 kinases [[18,27]].

panel of 442 kinases [2] = target: T2, panel of 442 kinases (Homo sapiens, UniProt Q9NRH2); format: binding; conditions: kinase SNRK; compound concentration 10 µM
T2 construct: purchased KINOMEscan
T2 sequence (Q9NRH2 1-765): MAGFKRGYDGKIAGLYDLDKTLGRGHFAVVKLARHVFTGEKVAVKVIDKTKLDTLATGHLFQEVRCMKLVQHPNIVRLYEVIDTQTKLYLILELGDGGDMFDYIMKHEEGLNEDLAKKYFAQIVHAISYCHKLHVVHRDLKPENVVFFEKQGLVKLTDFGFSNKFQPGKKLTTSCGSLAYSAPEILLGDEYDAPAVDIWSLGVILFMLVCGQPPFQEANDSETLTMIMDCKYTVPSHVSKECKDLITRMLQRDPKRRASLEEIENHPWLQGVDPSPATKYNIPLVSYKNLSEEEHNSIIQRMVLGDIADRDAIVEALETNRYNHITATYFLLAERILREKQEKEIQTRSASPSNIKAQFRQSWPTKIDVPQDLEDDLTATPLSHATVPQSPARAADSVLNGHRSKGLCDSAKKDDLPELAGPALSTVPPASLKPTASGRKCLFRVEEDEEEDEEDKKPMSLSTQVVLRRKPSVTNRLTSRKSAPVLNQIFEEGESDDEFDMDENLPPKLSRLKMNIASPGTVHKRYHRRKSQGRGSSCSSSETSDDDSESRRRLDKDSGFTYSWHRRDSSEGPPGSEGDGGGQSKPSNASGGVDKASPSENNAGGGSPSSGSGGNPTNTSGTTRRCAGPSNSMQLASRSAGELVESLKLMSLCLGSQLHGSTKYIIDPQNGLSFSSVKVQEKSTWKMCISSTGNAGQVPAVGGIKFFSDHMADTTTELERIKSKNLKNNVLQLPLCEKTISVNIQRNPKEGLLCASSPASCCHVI
Source text: as §1

T1 sequence (P21127 whole entry): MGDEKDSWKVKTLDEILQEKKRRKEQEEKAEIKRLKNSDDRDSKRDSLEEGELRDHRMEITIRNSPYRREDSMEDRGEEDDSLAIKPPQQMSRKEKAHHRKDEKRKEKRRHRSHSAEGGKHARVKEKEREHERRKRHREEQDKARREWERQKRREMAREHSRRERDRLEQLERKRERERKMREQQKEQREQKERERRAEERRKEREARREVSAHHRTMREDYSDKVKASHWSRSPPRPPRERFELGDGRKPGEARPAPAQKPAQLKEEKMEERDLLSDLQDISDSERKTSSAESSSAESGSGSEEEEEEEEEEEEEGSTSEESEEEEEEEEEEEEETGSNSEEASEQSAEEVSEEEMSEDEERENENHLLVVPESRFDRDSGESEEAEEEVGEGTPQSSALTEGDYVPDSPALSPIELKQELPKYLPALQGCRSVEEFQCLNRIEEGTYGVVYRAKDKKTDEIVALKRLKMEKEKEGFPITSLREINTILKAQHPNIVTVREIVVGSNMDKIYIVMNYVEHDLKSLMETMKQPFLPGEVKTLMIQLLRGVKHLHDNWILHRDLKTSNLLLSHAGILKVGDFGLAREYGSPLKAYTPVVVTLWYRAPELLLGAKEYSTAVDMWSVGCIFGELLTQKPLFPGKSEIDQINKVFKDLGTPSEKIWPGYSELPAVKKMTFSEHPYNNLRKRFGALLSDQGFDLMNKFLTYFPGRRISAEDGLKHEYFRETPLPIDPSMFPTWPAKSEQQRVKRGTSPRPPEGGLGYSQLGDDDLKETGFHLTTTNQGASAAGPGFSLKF

| SMILES | KINOMEscan: CDC2L1 (panel of 442 kinases [1]) | % Ctrl, SNRK (panel of 442 kinases [2]) [% Ctrl] |
| --- | --- | --- |
| COc1cc(C(=O)N2CCC(N3CCN(C)CC3)CC2)ccc1Nc1ncc2c(n1)N(C)c1ccccc1C(=O)N2C [15 (LRRK2-IN-1)] | 84 | 94 |
| COc1cc(C(=O)N2CCC(N3CCN(C)CC3)CC2)ccc1Nc1ncc2c(n1)N(C1CCCC1)c1ccccc1C(=O)N2C [Compound 25, 11-cyclopentyl-2-((2-methoxy-4-(4-(4-methylpiperazin-1-yl)piperidine-1-carbonyl)phenyl)amino)-5-methyl-5H-benzo[e]pyrimido[5,4-b][1,4]diazepin-6(11H)-one] | 81 | 72 |
| CCOc1cc(C(=O)N2CCC(N3CCN(C)CC3)CC2)ccc1Nc1ncc2c(n1)N(C1CCCC1)c1ccccc1C(=O)N2C [Compound 26] | 100 | 52 |
